Common to all, as to test: NCI-60 cell line screen, 48 h
In assay [1] the test system is OVCAR-5 ovarian.
For assay [2], the system named is HOP-92 NSCLC.
In assay [3] the test system is HL-60(TB) leukemia.
For assay [4], the system named is NCI-H460 lung.
For assay [5], the system named is UO-31 renal.
Assay [6] concerns SW-620 colon.
Assay [7] has as its system SF-539 CNS.
Assay [8] concerns HCT-116 colon.
The test system of assay [9] is NCI-H522 lung.
The test system of assay [10] is HCT-15 colon.

Where “and” joins values, the source holds several entries; their conditions need not be identical. Equal values may be shown once.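 Grown in 96-well plates, cells were treated for 48 hours with each compound at five concentrations. Insufficient inhibition: endpoint recorded as highest concentration tested. GI50 marks 50% less growth. Definition used: TGI = concentration required for complete inhibition of growth.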

For the compound `O=c1[nH]c(=O)n(Cc2ccc(C34CC5CC(CC(C5)C3)C4)c(O)c2)cc1F`, the GI50 in assay [1] is 16.1 µM; in assay [2] it was 13.5 µM; in assay [3], 3.05 µM; in assay [4] it was 16.5 µM; in [5], 14.2 µM; in assay [6], 13.5 µM. Moreover, the GI50 was 14.7 µM in assay [7], 13.3 µM in assay [8], 13.1 µM in assay [9] and 10.2 µM in assay [10]. Further, the TGI in assay [1] amounted to 33.4 µM; in assay [2], 26.4 µM; in [3] it was 16 µM; in assay [4], 43 µM; in assay [5] it was 29.8 µM; in assay [6], 34.2 µM. The TGI amounted to 30.1 µM in [7], 28.5 µM in [8], 31.9 µM in assay [9] and 22.3 µM in [10].

As for `CN(C)CCN1C(=O)c2cccc3cc(N)cc(c23)C1=O`, the GI50 in [1] is 3.98 µM; in [2], 2.28 µM; in assay [3] it was 5.29 µM; in assay [5] it was 2.09 µM; in [6] it was 2.14 µM; in [8], 3.21 µM. Also, the GI50 in assay [9] is 3.21 µM. The TGI in assay [1] was 48.7 µM and 13.8 µM; in assay [2], 15.4 µM and 13.1 µM; in assay [3], 59.2 µM and 16.2 µM; in assay [4], 5.34 µM and 5.95 µM; in [5], 43.1 µM and 12.8 µM; in [6], 24.3 µM and 15.9 µM. Further, the TGI in assay [7] was 18.2 µM and 14.7 µM; in assay [8], > 60.2 µM and 9.87 µM; in [9], 11.6 µM and 10.3 µM; in assay [10], > 50 µM and 16 µM.

On to `CCOc1cc(/C=C/C(=O)CC(=O)/C=C/c2ccc(OC(=O)CNc3nc4ccc(OC)cc4s3)c(OCC)c2)ccc1OC(=O)CNc1nc2ccc(OC)cc2s1`, for which the GI50 is 15.3 µM in assay [1]; 18 µM in assay [2]; 2.77 µM in [3]; 5.1 µM in assay [4]; 2.58 µM in assay [5]; 3.78 µM in [6]. Besides, the GI50 in assay [7] is 2.12 µM; in assay [8], 3.02 µM; in [9], 12.6 µM; in assay [10], 5.24 µM. Moreover, the TGI in [1] was 34 µM; in [2] it was 56.3 µM; in assay [3], 15.2 µM; in [4], 23.4 µM; in assay [5], greater than 100 µM; in assay [6] it was 13.2 µM. The TGI in assay [7] stood at 5.14 µM; in assay [8], 15.1 µM; in assay [9] it was 34.4 µM; in assay [10] it was 22.6 µM.

On to `C=CC(=O)N1CCN([C@@H](CC2CC2)c2ccc([C@H](C)Nc3ncc4c(n3)N(CC)C(=O)OC4)cc2)CC1`, for which the GI50 in assay [1] is 16.6 µM; in [2], 1.47 µM; in assay [3], 2.28 µM; in [4], 14.2 µM; in assay [5], 10.8 µM; in assay [6], 14.2 µM. Moreover, the GI50 is 11.7 µM in [7], 7.67 µM in assay [8], 10.2 µM in assay [9] and 10.3 µM in assay [10]. Also, the TGI in assay [1] worked out at 35.4 µM; in assay [2], 8.06 µM; in assay [3], 12.7 µM; in [4], 29.7 µM; in assay [5], 26.3 µM; in [6] it was 31.1 µM. Besides, the TGI in [7] turned out to be 24.3 µM; in assay [8], 21.9 µM; in [9], 26.1 µM; in assay [10] it was 25.5 µM.

On to `CC(C)Cn1cnc2c(N)nc3ccccc3c21`, for which the GI50 is 65.4 µM in [1]; 31.1 µM in assay [2]; greater than 47.7 µM in [3]; 23.1 µM in [4]; 35.8 µM in assay [5]; 41.8 µM in [6]. Moreover, the GI50 in assay [7] was 42.9 µM; in [8] it was 19.8 µM; in assay [9] it was 78.5 µM; in [10], 29.7 µM. Besides, the TGI in assay [1], in assay [2], in [3], in [4], in assay [5] and in [6] was greater than 100 µM in each case. For the same compound, the TGI in [7] was greater than 100 µM; in assay [8] it was greater than 73.1 µM; in [9], greater than 100 µM; in assay [10] it was greater than 100 µM.

With `[O-]c1ccccc1C=NCCN=Cc1ccccc1[O-].[O]=[U+2]=[O]`, the GI50 is greater than 100 µM in assay [1]; 22.6 µM in assay [2]; greater than 48.4 µM in assay [3]; 19.6 µM in [4]; 29.8 µM in assay [5]; greater than 100 µM in [6]. Besides, the GI50 in assay [7] was 16.7 µM; in [8], 46.2 µM; in assay [9], greater than 53.4 µM; in assay [10] it was 36.8 µM. Besides, the TGI in assay [1] was greater than 100 µM; in assay [2], 48.3 µM; in assay [3] it was greater than 84.5 µM; in assay [4], 43.7 µM; in [5], greater than 60.6 µM; in assay [6], greater than 100 µM. Besides, the TGI in assay [7] was 37.6 µM; in assay [8], greater than 100 µM; in [9], greater than 75.2 µM; in [10], greater than 100 µM.

`Clc1ccc(NCNC2Nc3ccccc3N2)cc1Cl`: the TGI in assay [1], in assay [2], in assay [3], in [4], in [5] and in assay [6] was greater than 100 µM throughout. Besides, the TGI in [7] was greater than 100 µM; in assay [8] it was greater than 100 µM; in assay [9], 56.2 µM; in assay [10] it was greater than 100 µM.

For `CC(C)OC(=O)Nc1c([N+](=O)[O-])cc(C(F)(F)F)cc1[N+](=O)[O-]`, the TGI is greater than 100 µM in assay [1]; greater than 91.8 µM in assay [2]; greater than 100 µM in assay [3]; greater than 100 µM in assay [4]; greater than 100 µM in assay [5]; greater than 100 µM in assay [6]. The TGI in assay [7] was 70.3 µM; in [8] it was greater than 100 µM; in assay [9] it was greater than 100 µM; in [10], greater than 100 µM.

For the origin of these results see PubChem BioAssay (NCI).
